Converted amounts (≈) assume the structure as drawn.
Columns and labels:
[1] = test system: MAPK2; parameters: method as in ref [25] (a number printed in a supplementary file, which may have a reference list of its own: not looked up in the article's list); conditions: control 100 µM; compounds 1 µM; ref [25]; cited from earlier work
[2] = test system: P. falciparum 3D7 trophozoites; experiment: Metabolomic fingerprint profiling LC-MS; format: cell-based, Plasmodium falciparum; parameters: UDP-D-glucose / ADP-D-glucose: unit not given here
[3] = test system: P. falciparum; experiment: EC50 listed in S2 Table Metabolomics (used to set the concentration tested); format: cell-based; conditions: Plasmodium falciparum; EC50 used for Factor_XEC50 in metabolomics; read-out: EC50_nM
[4] = test system: T. b. brucei Squib 427; experiment: T. b. brucei growth Maes; format: cell-based, Trypanosoma brucei brucei; conditions: non-toxic, positive in all T. brucei screens
[5] = test system: T. muris L1 larvae; experiment: T. muris L1 larvae J. Keiser; format: cell-based, Trichuris muris; conditions: 100µM
[6] = test system: A. ceylanicum L3 larvae; experiment: A. ceylanicum L3 larvae J. Keiser; format: cell-based, Ancylostoma ceylanicum; conditions: 200µM
[7] = biological target: Pf KRS Lysyl-tRNA Synthetase (Plasmodium falciparum, UniProt Q8IDJ8); experiment: PfKRS Kinase-Glo aminoacylation; conditions: control 1µM; compounds 10 µM
[8] = test system: PK7; parameters: method as in ref [25] (a number printed in a supplementary file, which may have a reference list of its own: not looked up in the article's list); conditions: control 100 µM; compounds 1 µM; ref [25]; cited from earlier work
[9] = test system: Staphylococcus aureus; experiment: S. aureus agar spot / MIC Baker; conditions: read-out: Minimum Inhibitory Concentrations (MIC) S. aureus
[10] = test system: Acinetobacter baumannii ATCC 19606; experiment: A. baumannii agar spot / MIC Baker; conditions: ATCC19606, read-out: Minimum Inhibitory Concentrations (MIC) A. baumanii
[11] = test system: Naegleria fowleri trophozoites; experiment: Naegleria fowleri CellTiter-Glo; format: cell-based; conditions: Naegleria fowleri
From the text: Columns CY-CZ: Kyle group (data presented first in this paper). Naegleria fowleri trophozoite growth inhibition. Methods: The CellTiter-Glo (CTG) 2.0 luminescent assay is a quantitative assay that assesses the presence of cellular ATP in lysed cells, displaying an output in Relative Light Units (RLU’s). This was previously standardised, for the growth and development of Naegleria fowleri trophozoites in-vitro to assess drug susceptibility on this parasite. […] These included two drug-like molecules MMV665807 (St. Jude’s Children’s Hospital) and MMV665979 (The Genomics Institute of the Novartis Research Foundation - GNF) and two Probe-like molecules, MMV006203 (GNF) & MMV006172 (GNF; GlaxoSmithKline - GSK). […] However, these Malaria Box compounds were all toxic to zebrafish and mammalian cells.

[12] = biological target: Pf ProRS Prolyl-tRNA synthetase (Plasmodium falciparum, UniProt Q8I5R7); experiment: PfProRS Kinase-Glo aminoacylation; conditions: control 1µM; compounds 10 µM
[13] = biological target: rhodesain (Trypanosoma brucei rhodesiense, UniProt Q95PM0); experiment: rhodesain Z-FR-AMC cleavage; format: biochemical; conditions: 500 nM
Experimental: (§1) Cysteine Protease Inhibitors Cruzain and Rhodesain, Ferreira group (data presented first in this paper). Recombinant cruzain was gently provided by Allison Doak and Dr. Brian Shoichet (University of California, San Francisco), while rhodesain was kindly provided by Dr. Conor Caffrey (Center for Discovery and Innovation in Parasitic Diseases, Skaggs School of Pharmacy and Pharmaceutical Sciences, University of California San Diego). Cruzain and rhodesain activity were measured as previously described, (Ferreira et al., 2010) by monitoring the cleavage of the fluorogenic substrate Z-Phe-Argaminomethylcoumarin (Z-FR-AMC) in a Synergy 2 (Biotek), from the Center of Flow Cytometry and Fluorimetry at the Biochemistry and Immunology Department (Universidade Federal de Minas Gerais, UFMG). Formation of fluorescent 4-amino-7-metyhlcoumarin was measured employing 340 nm wavelength for excitation and 440 nm for emission. […] Initially compounds were pre-incubated with the enzyme for 10 minutes in 100 µL assay buffer, then 100 µL of 5 μM substrate solution was added and the reaction was immediately monitored. Assays were performed in duplicate, followed for 5 min and activity was calculated based on initial velocities. […] Reported values refer to average and standard errors calculated based on duplicates. […] Data was analyzed with Prism 5.0 (GraphPad). […]

[14] = test system: P. falciparum HB3; experiment: Stage-specificity / mitochondrial integrity image assay Ayong; format: cell-based; conditions: 10µM
[15] = biological target: cruzain (Trypanosoma cruzi, UniProt P25779); experiment: cruzain Z-FR-AMC cleavage; format: biochemical; conditions: 500 nM
Experimental: as §1

[16] = metabolite level change after treatment

Sequence of Pf ProRS Prolyl-tRNA synthetase (Q8I5R7 8-746): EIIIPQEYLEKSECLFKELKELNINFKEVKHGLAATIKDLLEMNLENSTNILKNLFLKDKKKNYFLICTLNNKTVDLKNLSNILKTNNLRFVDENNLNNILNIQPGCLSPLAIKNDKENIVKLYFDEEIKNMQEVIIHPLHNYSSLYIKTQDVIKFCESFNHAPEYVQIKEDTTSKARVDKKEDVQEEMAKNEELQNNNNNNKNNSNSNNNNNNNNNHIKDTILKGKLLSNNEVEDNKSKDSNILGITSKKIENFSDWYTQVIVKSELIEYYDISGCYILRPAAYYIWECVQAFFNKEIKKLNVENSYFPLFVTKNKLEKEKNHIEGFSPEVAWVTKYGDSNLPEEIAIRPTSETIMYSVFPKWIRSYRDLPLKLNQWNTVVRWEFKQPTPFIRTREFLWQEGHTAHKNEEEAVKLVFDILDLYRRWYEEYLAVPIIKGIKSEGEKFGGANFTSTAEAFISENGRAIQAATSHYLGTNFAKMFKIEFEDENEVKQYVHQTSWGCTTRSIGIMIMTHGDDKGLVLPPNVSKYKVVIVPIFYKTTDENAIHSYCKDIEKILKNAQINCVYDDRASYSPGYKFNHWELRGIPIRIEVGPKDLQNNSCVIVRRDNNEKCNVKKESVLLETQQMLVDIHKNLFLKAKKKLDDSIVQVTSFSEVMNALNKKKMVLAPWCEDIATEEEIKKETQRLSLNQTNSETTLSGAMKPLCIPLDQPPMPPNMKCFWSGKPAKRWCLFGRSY
Sequence of cruzain (P25779 123-337): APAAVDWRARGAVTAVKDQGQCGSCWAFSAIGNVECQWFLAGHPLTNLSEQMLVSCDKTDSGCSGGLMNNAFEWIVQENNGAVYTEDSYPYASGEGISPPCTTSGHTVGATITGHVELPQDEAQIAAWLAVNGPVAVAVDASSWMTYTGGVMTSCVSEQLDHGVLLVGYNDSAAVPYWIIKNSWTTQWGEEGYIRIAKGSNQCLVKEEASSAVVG
Sequence of rhodesain (Q95PM0 entry or part of it): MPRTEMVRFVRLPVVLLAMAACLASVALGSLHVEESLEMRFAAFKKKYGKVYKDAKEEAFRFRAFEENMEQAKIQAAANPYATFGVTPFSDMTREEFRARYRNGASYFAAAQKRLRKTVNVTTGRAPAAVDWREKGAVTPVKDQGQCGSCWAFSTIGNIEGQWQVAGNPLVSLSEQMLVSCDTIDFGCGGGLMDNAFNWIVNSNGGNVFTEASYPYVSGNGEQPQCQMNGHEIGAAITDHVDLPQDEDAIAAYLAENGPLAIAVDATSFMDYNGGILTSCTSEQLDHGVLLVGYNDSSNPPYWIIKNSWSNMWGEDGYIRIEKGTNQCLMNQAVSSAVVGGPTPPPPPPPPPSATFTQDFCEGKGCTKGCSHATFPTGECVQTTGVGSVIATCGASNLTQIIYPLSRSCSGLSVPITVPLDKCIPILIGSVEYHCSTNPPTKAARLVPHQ
Sequence of Pf KRS Lysyl-tRNA Synthetase (Q8IDJ8 entry or part of it): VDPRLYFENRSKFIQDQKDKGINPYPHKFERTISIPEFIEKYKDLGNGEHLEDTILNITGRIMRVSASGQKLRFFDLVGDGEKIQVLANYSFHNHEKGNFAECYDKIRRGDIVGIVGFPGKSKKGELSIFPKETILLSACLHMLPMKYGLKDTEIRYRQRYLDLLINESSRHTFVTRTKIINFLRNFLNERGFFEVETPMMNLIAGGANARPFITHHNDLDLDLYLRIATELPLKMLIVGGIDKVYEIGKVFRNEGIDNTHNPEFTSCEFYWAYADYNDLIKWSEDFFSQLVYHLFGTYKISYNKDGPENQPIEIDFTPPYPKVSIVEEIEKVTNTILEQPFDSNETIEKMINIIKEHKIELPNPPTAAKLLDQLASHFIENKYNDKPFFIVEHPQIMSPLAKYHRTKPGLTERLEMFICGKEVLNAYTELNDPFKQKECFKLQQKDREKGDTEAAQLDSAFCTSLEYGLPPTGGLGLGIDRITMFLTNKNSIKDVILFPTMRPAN

Molecule: Nc1ncnc2c1ncn2[C@@H]1O[C@H](COP(=O)(O)OP(=O)(O)NP(=O)(O)O)[C@@H](O)[C@H]1O [AMP-PNP]
- MAPK2 % inhibition [1]: > 80%

Molecule: CCN1CCN(Cc2ccc(NC(=O)c3cc4ccc5cccnc5c4[nH]3)cc2)CC1 [MMV020548]
- Acetyllysine ([2]; S2 Table Metabolomics, metabolite Acetyllysine): -1.074
- N-acetyl-L-ornithine ([2]; S2 Table Metabolomics, metabolite N-acetyl-L-ornithine): -0.7002
- N-carbamoyl-L-aspartate ([2]; S2 Table Metabolomics, metabolite N-carbamoyl-L-aspartate): 0.01627
- NADPH ([2]; S2 Table Metabolomics, metabolite NADPH): -0.7588
- dAMP ([2]; S2 Table Metabolomics, metabolite dAMP): 0.7039
- dCMP ([2]; S2 Table Metabolomics, metabolite dCMP): 0.2246
- dTDP ([2]; S2 Table Metabolomics, metabolite dTDP): 0.1022
- dTMP ([2]; S2 Table Metabolomics, metabolite dTMP): 0.01221
- dTTP ([2]; S2 Table Metabolomics, metabolite dTTP): -0.4268
- dihydroorotate ([2]; S2 Table Metabolomics, metabolite dihydroorotate): 0.1148
- orotate ([2]; S2 Table Metabolomics, metabolite orotate): 0.2392
- DLH ([2]; S2 Table Metabolomics, peptide DLH): -1.531
- DLS/SDL/SID ([2]; S2 Table Metabolomics, peptide DLS/SDL/SID): -1.1
- PD ([2]; S2 Table Metabolomics, peptide PD): -1.147
- PEE ([2]; S2 Table Metabolomics, peptide PEE): -0.7652
- PVNF ([2]; S2 Table Metabolomics, peptide PVNF): -1.327
- 3-phosphoglycerate ([2]; metabolite 3-phosphoglycerate, S2 Table Metabolomics): -0.1406
- ADP-D-glucose ([2]; metabolite ADP-D-glucose, S2 Table Metabolomics): 0.03533
- ATP ([2]; metabolite ATP, S2 Table Metabolomics): -0.3247
- CDP ([2]; metabolite CDP, S2 Table Metabolomics, change in metabolite level after compound treatment): -0.06734
- D-sedoheptulose-1/7-phosphate ([2]; metabolite D-sedoheptulose-1/7-phosphate, S2 Table Metabolomics, change in metabolite level after compound treatment): -0.2201
- FAD ([2]; metabolite FAD, S2 Table Metabolomics): -0.1695
- GMP ([2]; metabolite GMP, S2 Table Metabolomics, change in metabolite level after compound treatment): 0.03987
- NAD+ ([2]; metabolite NAD+, S2 Table Metabolomics): -0.004207
- NADP+ ([2]; metabolite NADP+, S2 Table Metabolomics): -0.07599
- Octoluse Bisphosphate ([2]; metabolite Octoluse Bisphosphate, S2 Table Metabolomics, change in metabolite level after compound treatment): -0.5083
- Pyroglutamic acid ([2]; metabolite Pyroglutamic acid, S2 Table Metabolomics): 0.8773
- UDP-D-glucose ([2]; metabolite UDP-D-glucose, S2 Table Metabolomics): -0.04378
- UDP-D-glucuronate ([2]; metabolite UDP-D-glucuronate, S2 Table Metabolomics): -0.2395
- UDP-N-acetyl-glucosamine ([2]; metabolite UDP-N-acetyl-glucosamine, S2 Table Metabolomics): -0.0477
- UDP ([2]; metabolite UDP, S2 Table Metabolomics, change in metabolite level after compound treatment): -0.1277
- UMP ([2]; metabolite UMP, S2 Table Metabolomics, change in metabolite level after compound treatment): -0.04731
- UTP ([2]; metabolite UTP, S2 Table Metabolomics, change in metabolite level after compound treatment): -0.476
- a-ketoglutarate ([2]; metabolite a-ketoglutarate, S2 Table Metabolomics): 0.2925
- citrate/isocitrate ([2]; metabolite citrate/isocitrate, S2 Table Metabolomics, change in metabolite level after compound treatment): 0.7028
- cytidine ([2]; metabolite cytidine, S2 Table Metabolomics): 0.2393
- dATP ([2]; metabolite dATP, S2 Table Metabolomics): -0.2064
- dGMP/AMP ([2]; metabolite dGMP/AMP, S2 Table Metabolomics, change in metabolite level after compound treatment): 0.2962
- fumarate ([2]; metabolite fumarate, S2 Table Metabolomics, change in metabolite level after compound treatment): -0.1605
- glucose-1/6-phosphate ([2]; metabolite glucose-1/6-phosphate, S2 Table Metabolomics, change in metabolite level after compound treatment): -0.1021
- glycerate ([2]; metabolite glycerate, S2 Table Metabolomics, change in metabolite level after compound treatment): 0.2926
- guanine ([2]; metabolite guanine, S2 Table Metabolomics, change in metabolite level after compound treatment): 0.4901
- guanosine ([2]; metabolite guanosine, S2 Table Metabolomics, change in metabolite level after compound treatment): 0.1417
- hypoxanthine ([2]; metabolite hypoxanthine, S2 Table Metabolomics): 0.9061
- indole ([2]; metabolite indole, S2 Table Metabolomics): 0.3876
- inosine ([2]; metabolite inosine, S2 Table Metabolomics, change in metabolite level after compound treatment): 0.524
- 2_3-Diphosphoglyceric acid [2, 16]: -0.4996
- 4-phosphopantothenate [2, 16]: 0.07924
- 6-phospho-D-gluconate [2, 16]: -0.3745
- FMN [2, 16]: -0.06134
- IMP [2, 16]: 0.03526
- Pyrophosphate [2, 16]: -0.5624
- Sedoheptoluse bisphosphate [2, 16]: -0.2788
- cyclic-AMP [2, 16]: -0.1988
- glutathione disulfide [2, 16]: -0.4809
- lactate [2, 16]: 0.3196
- myo-inositol [2, 16]: -0.02428
- nicotinate ([2]; metabolite nicotinate, S2 Table Metabolomics): 0.6741
- ornithine ([2]; metabolite ornithine, S2 Table Metabolomics): -0.3153
- phosphoenolpyruvate ([2]; metabolite phosphoenolpyruvate, S2 Table Metabolomics): 0.09829
- pyruvate ([2]; metabolite pyruvate, S2 Table Metabolomics, change in metabolite level after compound treatment): 0.858
- ribose-phosphate ([2]; metabolite ribose-phosphate, S2 Table Metabolomics): -0.1246
- sarcosine/alanine ([2]; metabolite sarcosine/alanine, S2 Table Metabolomics, change in metabolite level after compound treatment): 0.05828
- sn-glycerol-3-phosphate ([2]; metabolite sn-glycerol-3-phosphate, S2 Table Metabolomics): -0.07501
- succinate/methylmalonic acid ([2]; metabolite succinate/methylmalonic acid, S2 Table Metabolomics, change in metabolite level after compound treatment): -0.07231
- uridine ([2]; metabolite uridine, S2 Table Metabolomics, change in metabolite level after compound treatment): 0.7812
- xanthosine ([2]; metabolite xanthosine, S2 Table Metabolomics, change in metabolite level after compound treatment): 0.03293
- EC50 [3]: 361 nM
- Selectivity Index T. brucei screens [4]: > 10

Molecule: ivermectin [reference compound]
- T. muris positive control effect [5]: caused death of all worms
- A. ceylanicum positive control effect [6]: caused death of all worms

Molecule: c1ccc([C@H]2CN3CCSC3=N2)cc1 [Levamisole, reference compound]
- T. muris positive control effect [5]: caused death of all worms
- A. ceylanicum positive control effect [6]: caused death of all worms

Molecule: C[C@H]1CCC[C@H](C[C@H]2Cc3cc(O)cc(O)c3C(=O)O2)O1 [Cladosporin]
- PfKRS % inhibition [7]: 100%

Molecule: CC(C)(C)n1nc(-c2cccc3ccccc23)c2c(N)ncnc21 [1NA-PP1]
- PK7 % inhibition [8]: > 80%

Molecule: O=C(Nc1cccc(C(F)(F)F)c1)c1cc(Cl)ccc1O [MMV665807]
- MIC [9]: 1.25 to 5 µM (≈ 0.395 to 1.58 µg/mL)
- MIC [10]: 1.25 to 5 µM (≈ 0.395 to 1.58 µg/mL)
- EC50 [11]: 1090 nM

Molecule: O=C(CC1NCCCC1O)Cn1cnc2cc(Br)c(Cl)cc2c1=O (stereo not shown) [halofuginone]
- PfProRS % inhibition [12]: 100%

Molecule: CC(C)C[C@H](NC(=O)[C@H]1O[C@@H]1C(=O)O)C(=O)NCCCCN=C(N)N (relative stereo) [E-64, trans-Epoxysuccinyl-L-leucylamido-(4-guanidino) butane]
- rhodesain % inhibition [13]: approximately 100%
- Effects on asexual life cycle progression (treatment at ER, LR, T, S; merozoites; mitochondrial integrity) [14]: X-S-S-X-o-o
- cruzain % inhibition [15]: approximately 100%

Molecule: O=C(Nc1ccc(F)c(Cl)c1)Nc1ccc(Cl)c(Cl)c1 [MMV665953]
- MIC [9]: 1.25 to 5 µM (≈ 0.417 to 1.67 µg/mL)
- MIC [10]: 1.25 to 5 µM (≈ 0.417 to 1.67 µg/mL)
